The source of these data is PubChem BioAssay (NCI).

Holding throughout (assay): NCI-60 cell line screen, 48 h
The subject of experiment [1] is 786-0 renal.
Experiment [2] relates to HCT-15 colon.
Experiment [3] deals with M14 melanoma.
The subject of experiment [4] is MDA-N.
Experiment [5] concerns NCI/ADR-RES ovarian.
The subject of experiment [6] is OVCAR-5 ovarian.
For experiment [7], the system named is RXF 393 renal.
In experiment [8] the test system is SK-MEL-5 melanoma.
The test system of experiment [9] is TK-10 renal.
Experiment [10] relates to UACC-257 melanoma.
Experiment [11] has as its system SK-OV-3 ovarian.

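Dose response: 5 concentrations. Exposure: 48 h. Format: 96-well plates. Endpoint: linear interpolation; highest concentration if not reached. TGI denotes the concentration required for complete inhibition of growth.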

Consider `CCOC(=O)c1c(NS(=O)(=O)c2ccccc2)sc2c1CCCC2`, for which the TGI in experiment [1], in experiment [2], in [3], in [4], in [5] and in experiment [6] was greater than 100 µM each time. Besides, the TGI in experiment [7], in experiment [8], in [9] and in experiment [10] was greater than 100 µM throughout.

Turning to `O=C1c2ccccc2CC12Cc1ccc3c(c1C2=O)CCCC3` (stereo unspecified), the TGI in experiment [1], in experiment [2], in [3], in experiment [4], in experiment [5] and in experiment [6] was greater than 100 µM in each case. The TGI in experiment [7] is 23.9 µM; in experiment [8], greater than 100 µM; in experiment [11], greater than 100 µM; in experiment [9], greater than 100 µM; in experiment [10] it was greater than 100 µM.

Consider `Cc1ccc2c(c1)CC1(Cc3cc(C)ccc3C1=O)C2=O`, for which the TGI in experiment [1], in [2], in experiment [3], in [4], in experiment [5] and in experiment [6] was greater than 100 µM throughout. The TGI in [7], in experiment [8], in experiment [11], in [9] and in [10] was greater than 100 µM in each case.

`NS(=O)(=O)c1ccc(Nc2c3ccccc3nc3c(C(=O)NC(CO)(CO)CO)cccc23)cc1`: the TGI in [1] is 0.0514 µM; in experiment [2], 0.948 µM; in experiment [3], 0.39 µM; in [4], 0.862 µM; in experiment [5], greater than 1 µM; in [6], 0.709 µM. Also, the TGI in experiment [7] worked out at 0.386 µM; in [8], 0.229 µM; in [11], 0.468 µM; in experiment [9], 0.311 µM; in experiment [10] it was 0.346 µM.

For `O=C1CC2(CCN(Cc3ccccc3)CC2)C(=O)N1N1CCCCC1`, the TGI in experiment [1], in experiment [2], in experiment [3], in experiment [4], in [5] and in experiment [6] was greater than 100 µM in each case. For the same molecule, the TGI in [7], in experiment [8], in experiment [11], in experiment [9] and in [10] was greater than 100 µM throughout.

Consider `CC(C)C1OC(=O)C(Cc2ccccc2)N(C)C(=O)C(C(C)C)OC(=O)C(Cc2ccccc2)N(C)C(=O)C(C(C)C)OC(=O)C(Cc2ccccc2)N(C)C1=O` (stereo unspecified), for which the TGI in experiment [1] was 2.5 µM; in experiment [2], 2.61 µM; in experiment [3], 2.03 µM; in experiment [4], 2.1 µM; in [5], 2.36 µM; in experiment [6], 2.44 µM. The TGI in experiment [7] turned out to be 2.33 µM; in [8] it was 1.08 µM; in experiment [11], 2.16 µM; in experiment [9] it was 2.12 µM; in experiment [10], 2 µM.

Turning to `COC(=O)c1sc2c(c1C(=O)OC)C(=Nc1ccc(OC)cc1)SC2=Nc1ccc(OC)cc1`, the TGI in experiment [1] came to 1.33 µM; in experiment [2], 1.66 µM; in [3], 3 µM; in experiment [4] it was 2.52 µM; in experiment [5], 3.47 µM; in experiment [6], 3.55 µM. For the same molecule, the TGI was 1.72 µM in experiment [7]; 2.54 µM in [8]; 3.37 µM in [11]; 3.01 µM in experiment [9]; 2.75 µM in experiment [10].

Consider `CCOc1c2c(cc3c1C(=O)c1c(OC)cccc1C3=O)C=C(OC)CC2`, for which the TGI was greater than 25 µM in experiment [1]; greater than 25 µM in experiment [2]; greater than 25 µM in experiment [3]; 19.9 µM in experiment [4]; greater than 25 µM in experiment [5]; greater than 25 µM in [6]. The TGI in experiment [7], in [8], in experiment [11], in experiment [9] and in experiment [10] was greater than 25 µM each time.

Turning to `CSC(SC)=C(C#N)C(=O)Nc1ccc(Cl)cc1`, the TGI in experiment [1], in [2], in experiment [3], in experiment [4], in experiment [5] and in [6] was greater than 100 µM throughout. Besides, the TGI in experiment [7] is 54.9 µM; in experiment [8], greater than 100 µM; in [11], greater than 100 µM; in experiment [9], 72.6 µM; in experiment [10] it was greater than 100 µM.

`O=[N+]([O-])C(/C=C(\Cl)[N+](=O)[O-])=C(N1CCOCC1)N1CCOCC1`: the TGI in experiment [1] is 30.7 µM; in experiment [2], greater than 100 µM; in experiment [3] it was greater than 100 µM; in experiment [4], greater than 100 µM; in experiment [5], greater than 100 µM; in experiment [6] it was 57.2 µM. In addition, the TGI in [7], in [8], in [11], in experiment [9] and in [10] was greater than 100 µM in each case.

In the case of `CN1N=C(c2ccncc2)OC1c1ccc(C(F)(F)F)cc1` (stereo unspecified), the TGI in experiment [1], in [2], in [3], in experiment [4], in [5] and in experiment [6] was greater than 100 µM in each case. Also, the TGI in experiment [7], in experiment [8], in experiment [11], in experiment [9] and in experiment [10] was greater than 100 µM throughout.

For `NC1CC(=O)c2c(I)sc(I)c21` (stereo unspecified), the TGI is greater than 53.4 µM in experiment [1]; 45.8 µM in experiment [2]; greater than 77.1 µM in experiment [3]; 44.7 µM in experiment [4]; greater than 61.7 µM in experiment [5]; 53 µM in experiment [6]. Moreover, the TGI in experiment [7] is greater than 60.8 µM; in experiment [8], greater than 71.1 µM; in experiment [11], greater than 100 µM; in experiment [9] it was 37.2 µM; in experiment [10] it was 39.9 µM.
